Test results taken from patent US20140024613A1, “Methods for Treating HCV” (AbbVie Inc., priority 2012, published 2014).

What was measured:
[1] = known effect of ritonavir, FDA approved Kaletra Drug Label May 2012; cited from earlier work
[2] = parameters: species or system HCV patients (human); settings: in vivo
From the text: Ritonavir-boosted HIV protease inhibitors are associated with increases in serum lipids. See FIG. 1, where LPV refers to lopinavir, “/r” refers to co-administration with ritonavir (e.g., LPV/r refers to lopinavir co-administered with ritonavir). DRV refers to darunavir, ATV refers to atazanavir, FPV refers to fosamprenavir, FTC refers to emtricitabine, TDF refers to tenofovir disoproxil fumarate, […], 3TC refers to lamivudine, TC refers to total cholesterol, and TG refers to total triglycerides. These increase in cholesterol and triglycerides may be related to inhibition of the proteasome, which is involved in degradation of proteins related to lipid metabolism. However, the impact of ritonavir-boosted HCV treatments on lipid levels has not been studied. The purpose of this Example was to examine the lipid levels of HCV patients during 12 weeks of treatment with ritonavir-containing, interferon-free regimens. […]
Fasting total cholesterol (TC) and triglycerides (TG) were measured at each study visit. The number of subjects with baseline low or normal TC or TG who shifted to high TC or TG were calculated using NCEP cut-offs. Lipid fractions were not measured.

Q: With `CC(C)c1nc(CN(C)C(=O)N[C@H](C(=O)N[C@@H](Cc2ccccc2)C[C@H](O)[C@H](Cc2ccccc2)NC(=O)OCc2cncs2)C(C)C)cs1` [ritonavir] as the compound, how does the “cholesterol and triglyceride levels” value [1] read?
A: elevated cholesterol and triglyceride levels

Q: What about the “total cholesterol and triglyceride levels” value [2] of the same compound?
A: not elevated
